Experimental data from ChEMBL document CHEMBL4265935, “Synthesis and evaluation of novel arctigenin derivatives as potential anti-Toxoplasma gondii agents” (Eur J Med Chem, 2018).
Activity calls are given as the source filed them. The rule behind the calls is not given here.

Tests used:
HeLa = assay: Cytotoxicity against human HeLa cells assessed as reduction in cell viability by MTT assay; format: cell-based
[1] = Selectivity index, ratio of IC50 for human HeLa cells to ratio of IC50 for Toxoplasma gondii RH tachyzoites; format: toxicity; settings: HeLa cells versus Toxoplasma gondii RH tachyzoites, read-out: Ratio IC50
Toxoplasma gondii [2] = assay: Antiparasitic activity against Toxoplasma gondii RH tachyzoites by MTT assay; format: functional, organism-based
Toxoplasma gondii [3] = assay: Antiparasitic activity against Toxoplasma gondii RH infected in Kunming mouse assessed as increase in GSH level in liver at 100 mg/kg, po qd administered via gavage for 4 consecutive days measured on day 5; format: functional, organism-based
Toxoplasma gondii [4] = assay: Antiparasitic activity against Toxoplasma gondii RH infected in Kunming mouse assessed as inhibition of number of intraperitoneal tachyzoite in abdominal cavity at 100 mg/kg, po qd administered via gavage for 4 consecutive days measured on day 5 by light microscopic analysis relative to control; format: functional; settings: 120 h
Toxoplasma gondii [5] = assay: Antiparasitic activity against Toxoplasma gondii RH infected in Kunming mouse assessed as increase in survival rate by measuring mortality day at 100 mg/kg, po qd administered via gavage for several consecutive days measured on day 12 (reference value: 9 to 11 days); format: functional
Toxoplasma gondii [6] = assay: Antiparasitic activity against Toxoplasma gondii RH infected in Kunming mouse assessed as reduction in serum ALT level at 100 mg/kg, po qd administered via gavage for 4 consecutive days measured on day 5; format: functional, organism-based
Toxoplasma gondii [7] = assay: Antiparasitic activity against Toxoplasma gondii RH tachyzoites infected in human HeLa cells assessed as increase in cell survival at 100 uM after 24 hrs by trypan blue assay relative to spiramycin; format: functional
Toxoplasma gondii [8] = assay: Antiparasitic activity against Toxoplasma gondii RH tachyzoites infected in human HeLa cells assessed as cell survival at 100 uM after 24 hrs by trypan blue assay (reference value: 20.8%); format: functional
Toxoplasma gondii [9] = assay: Antiparasitic activity against Toxoplasma gondii RH infected in Kunming mouse assessed as reduction in serum AST level at 100 mg/kg, po qd administered via gavage for 4 consecutive days measured on day 5; format: functional, organism-based
Toxoplasma gondii [10] = assay: Antiparasitic activity against Toxoplasma gondii RH infected in Kunming mouse assessed as improvement of hepatomegaly at 100 mg/kg, po qd administered via gavage for 4 consecutive days measured on day 5; format: functional, organism-based
Toxoplasma gondii [11] = assay: Antiparasitic activity against Toxoplasma gondii RH infected in Kunming mouse assessed as increase in body weight at 100 mg/kg, po qd administered via gavage for several consecutive days; format: functional, organism-based
Toxoplasma gondii [12] = assay: Antiparasitic activity against Toxoplasma gondii RH infected in Kunming mouse assessed as decrease in GSH level in liver at 100 mg/kg, po qd administered via gavage for 4 consecutive days measured on day 5; format: functional, organism-based
Toxoplasma gondii [13] = assay: Antiparasitic activity against Toxoplasma gondii RH infected in Kunming mouse assessed as improvement of splenomegaly at 100 mg/kg, po qd administered via gavage for 4 consecutive days measured on day 5; format: functional, organism-based
Toxoplasma gondii [14] = assay: Antiparasitic activity against Toxoplasma gondii RH infected in Kunming mouse assessed as survival rate at 100 mg/kg, po qd administered via gavage for several consecutive days measured on day 20 relative to control; format: functional; settings: 480 h
Toxoplasma gondii [15] = assay: Antiparasitic activity against Toxoplasma gondii RH infected in Kunming mouse assessed as increase in survival rate by measuring mortality day at 100 mg/kg, po qd administered via gavage for several consecutive days measured on day 10 (reference value: 9 to 11 days); format: functional
Toxoplasma gondii [16] = assay: Antiparasitic activity against Toxoplasma gondii RH infected in Kunming mouse assessed as inhibition of number of intraperitoneal tachyzoite in abdominal cavity at 200 mg/kg, po qd administered via gavage for 4 consecutive days measured on day 5 by light microscopic analysis relative to control; format: functional
Toxoplasma gondii [17] = assay: Antiparasitic activity against Toxoplasma gondii RH tachyzoites infected in human HeLa cells assessed as decrease in cell shrinkage at 100 uM after 24 hrs by inverted optical microscopic analysis; format: functional, organism-based
Toxoplasma gondii [18] = assay: Antiparasitic activity against Toxoplasma gondii RH tachyzoites infected in human HeLa cells assessed as decrease in number of cell death at 100 uM after 24 hrs by inverted optical microscopic analysis; format: functional, organism-based

Row | Compound | IC50 (HeLa) | selectivity ratio [1] | IC50 (Toxoplasma gondii [2]) | other results
1 | COc1ccc(C[C@H]2COC(=O)[C@@H]2Cc2ccc(OCc3cn(-c4ccc(C)cc4)nn3)c(OC)c2)cc1OC | ≥ 600 µM | > 1.64 | 366 µM | –
2 | COc1ccc(C[C@H]2COC(=O)[C@@H]2Cc2ccc(OCc3cn(-c4ccc(F)cc4)nn3)c(OC)c2)cc1OC | ≥ 600 µM | – | ≥ 600 µM | –
3 | COC(=O)[C@@H](NC(=O)CCC(=O)Oc1ccc(C[C@H]2C(=O)OC[C@@H]2Cc2ccc(OC)c(OC)c2)cc1OC)c1ccccc1 | 78.1 µM | 0.92 | 84.4 µM | –
4 | COc1ccc(C[C@H]2COC(=O)[C@@H]2Cc2ccc(OCC(=O)Nc3ccccc3)c(OC)c2)cc1OC | ≥ 600 µM | > 14.8 | 40.6 µM | Activity (Toxoplasma gondii [3]): Active; inhibition in vivo at 100 mg/kg (Toxoplasma gondii [4]): 82%; mortality (Toxoplasma gondii [5]): 12 days; Activity (Toxoplasma gondii [6]): inactive; Activity (Toxoplasma gondii [7]): 29.7%; survival at 100 µM (Toxoplasma gondii [8]): 69.7%; Activity (Toxoplasma gondii [9]): Active; Activity (Toxoplasma gondii [10]): Active
5 | COc1ccc(C[C@H]2COC(=O)[C@@H]2Cc2ccc(OCc3cn(-c4ccccc4)nn3)c(OC)c2)cc1OC | 124 µM | 0.92 | 136 µM | –
6 | COc1ccc(C[C@H]2COC(=O)[C@@H]2Cc2ccc(OCC(=O)N3CCCC3)c(OC)c2)cc1OC | ≥ 600 µM | > 1.78 | 336 µM | –
7 | COc1ccc(C[C@H]2COC(=O)[C@@H]2Cc2ccc(OCC(=O)N3CCCCC3)c(OC)c2)cc1OC | 293 µM | 0.94 | 313 µM | –
8 | COc1ccc(C[C@H]2COC(=O)[C@@H]2Cc2ccc(OCc3cn(Cc4ccc(F)cc4)nn3)c(OC)c2)cc1OC | 198 µM | < 0.33 | ≥ 600 µM | –
9 | COc1ccc(C[C@H]2COC(=O)[C@@H]2Cc2ccc(OC(=O)CCC(=O)N3CCCC3)c(OC)c2)cc1OC | 201 µM | 1.74 | 115 µM | –
10 | COc1ccc(C[C@H]2COC(=O)[C@@H]2Cc2ccc(OCc3cn(Cc4ccccc4F)nn3)c(OC)c2)cc1OC | ≥ 600 µM | > 35.1 | 17.1 µM | Activity (Toxoplasma gondii [3]): Active; inhibition in vivo at 100 mg/kg (Toxoplasma gondii [4]): 66.9%; Activity (Toxoplasma gondii [11]): Active; Activity (Toxoplasma gondii [12]): Active; Activity (Toxoplasma gondii [13]): Active; Activity (Toxoplasma gondii [6]): inactive; Activity (Toxoplasma gondii [7]): 28.4%; survival at 100 µM (Toxoplasma gondii [8]): 68.4%; Activity (Toxoplasma gondii [9]): Active; survival at 100 mg/kg (Toxoplasma gondii [14]): 16%; mortality (Toxoplasma gondii [15]): 10 days; Activity (Toxoplasma gondii [10]): Active
11 | COC(=O)[C@H](CC(C)C)NC(=O)CCC(=O)Oc1ccc(C[C@H]2C(=O)OC[C@@H]2Cc2ccc(OC)c(OC)c2)cc1OC | 53.2 µM | 0.85 | 62.5 µM | –
12 | COC(=O)[C@@H](Cc1ccccc1)NC(=O)CCC(=O)Oc1ccc(C[C@H]2C(=O)OC[C@@H]2Cc2ccc(OC)c(OC)c2)cc1OC | 357 µM | 1.58 | 226 µM | –
13 | COC(=O)[C@H](Cc1ccccc1)NC(=O)CCC(=O)Oc1ccc(C[C@H]2C(=O)OC[C@@H]2Cc2ccc(OC)c(OC)c2)cc1OC | ≥ 600 µM | – | ≥ 600 µM | –
14 | COC(=O)CNC(=O)CCC(=O)Oc1ccc(C[C@H]2C(=O)OC[C@@H]2Cc2ccc(OC)c(OC)c2)cc1OC | 179 µM | 1.14 | 157 µM | –
15 | COc1ccc(C[C@H]2COC(=O)[C@@H]2Cc2ccc(OCc3cn(-c4ccc(Br)cc4)nn3)c(OC)c2)cc1OC | 128 µM | 0.3 | 429 µM | –
16 | COc1ccc(C[C@H]2COC(=O)[C@@H]2Cc2ccc(OCc3cn(-c4ccc(Cl)cc4)nn3)c(OC)c2)cc1OC | 279 µM | 1 | 278 µM | –

Row | Compound | IC50 (HeLa) | selectivity ratio [1] | IC50 (Toxoplasma gondii [2]) | other results
17 | COc1ccc(C[C@H]2COC(=O)[C@@H]2Cc2ccc(OCc3cn(Cc4ccccc4Cl)nn3)c(OC)c2)cc1OC | 84.5 µM | 3.48 | 24.3 µM | –
18 | CCN1CCN(C(=O)CCC(=O)Oc2ccc(C[C@H]3C(=O)OC[C@@H]3Cc3ccc(OC)c(OC)c3)cc2OC)CC1 | 190 µM | 2.01 | 94.4 µM | –
19 | COc1ccc(C[C@H]2COC(=O)[C@@H]2Cc2ccc(OCc3cn(Cc4ccc(Cl)cc4)nn3)c(OC)c2)cc1OC | 242 µM | 0.97 | 251 µM | –
20 | CCN(CC)C(=O)CCC(=O)Oc1ccc(C[C@H]2C(=O)OC[C@@H]2Cc2ccc(OC)c(OC)c2)cc1OC | 213 µM | 1.04 | 206 µM | –
21 | COc1ccc(C[C@H]2COC(=O)[C@@H]2Cc2ccc(OCC(=O)N3CCOCC3)c(OC)c2)cc1OC | ≥ 600 µM | – | ≥ 600 µM | –
22 | COC(=O)[C@H](CCSC)NC(=O)CCC(=O)Oc1ccc(C[C@H]2C(=O)OC[C@@H]2Cc2ccc(OC)c(OC)c2)cc1OC | 199 µM | 1.2 | 165 µM | –
23 | COc1ccc(C[C@H]2COC(=O)[C@@H]2Cc2ccc(OCC(=O)Nc3ccc(C)cc3)c(OC)c2)cc1OC | 228 µM | 0.71 | 322 µM | –
24 | CCN(CC)C(=O)COc1ccc(C[C@H]2C(=O)OC[C@@H]2Cc2ccc(OC)c(OC)c2)cc1OC | 188 µM | 0.48 | 388 µM | –
25 | COC(=O)CC[C@H](NC(=O)CCC(=O)Oc1ccc(C[C@H]2C(=O)OC[C@@H]2Cc2ccc(OC)c(OC)c2)cc1OC)C(=O)OC | 95.7 µM | 0.61 | 157 µM | –
26 | COc1ccc(C[C@H]2COC(=O)[C@@H]2Cc2ccc(OCc3cn(-c4cccc(Cl)c4)nn3)c(OC)c2)cc1OC | 493 µM | 1.83 | 269 µM | –
27 | COc1ccc(-n2cc(COc3ccc(C[C@H]4C(=O)OC[C@@H]4Cc4ccc(OC)c(OC)c4)cc3OC)nn2)cc1 | ≥ 600 µM | – | ≥ 600 µM | –
28 | COc1cc(C[C@H]2C(=O)OC[C@@H]2Cc2ccc(OC)c(OC)c2)ccc1O [ARCTIGENIN] | 573 µM | 0.98 | 586 µM | inhibition in vivo at 100 mg/kg (Toxoplasma gondii [4]): 75.9%; Activity (Toxoplasma gondii [11]): Active; Activity (Toxoplasma gondii [12]): Active; Activity (Toxoplasma gondii [6]): inactive; Activity (Toxoplasma gondii [7]): 18.4%; inhibition (Toxoplasma gondii [16]): Active; Activity (Toxoplasma gondii [9]): Active; Activity (Toxoplasma gondii [17]): Active; survival at 100 mg/kg (Toxoplasma gondii [14]): 16%; mortality (Toxoplasma gondii [15]): 10 days; Activity (Toxoplasma gondii [18]): Active; Activity (Toxoplasma gondii [10]): Active
29 | COC(=O)[C@@H](NC(=O)CCC(=O)Oc1ccc(C[C@H]2C(=O)OC[C@@H]2Cc2ccc(OC)c(OC)c2)cc1OC)C(C)C | 64 µM | 1.96 | 32.7 µM | –
30 | COc1ccc(C[C@H]2COC(=O)[C@@H]2Cc2ccc(OC(=O)CCC(=O)N3CCCCC3)c(OC)c2)cc1OC | 128 µM | 3.12 | 41 µM | –
31 | COc1ccc(C[C@H]2COC(=O)[C@@H]2Cc2ccc(OCc3cn(Cc4ccccc4)nn3)c(OC)c2)cc1OC | 346 µM | 0.53 | 651 µM | –
32 | COC(=O)[C@@H]1CCCN1C(=O)CCC(=O)Oc1ccc(C[C@H]2C(=O)OC[C@@H]2Cc2ccc(OC)c(OC)c2)cc1OC | 145 µM | 3.31 | 43.9 µM | –
